Test results taken from patent publication US8440830B2, “Tetrahydro-fused pyridines as histone deacetylase inhibitors” (4SC AG, priority 2007, dated 2013).
Like-named read-outs stand apart in the source and are kept apart here.

Tests used:
[1] = system: histone H3 hyperacetylation in HeLa cervical carcinoma cells; assay: Cellular histone H3 hyperacetylation assay; type: cell-based; conditions: Homo sapiens, 24 h treatment
Text: To assess the cellular efficacy of a histone deacetylase inhibitor in vitro, an assay is set up in black clear-bottom 96-well plates and optimized for use on the Cellomics “ArrayScan II” platform for a quantitative calculation of histone acetylation. The protocol uses a polyclonal rabbit antibody, specifically binding to acetylated lysine 1-20 (including K 9 and K14) of human histone H3 on fixed cells with an Alexa Fluor 488 labeled goat anti rabbit-IgG used for counterstaining 5×10^3 HeLa cervical carcinoma cells/well (ATCC CCL-2) in 200 μl Dulbecco's modified Eagle's medium (DMEM) containing 10% fetal calf serum are seeded at day 1 in Packard view plates and incubated for 24 h under standard cell culture conditions. On day 2, 1 μl test compound (200× final concentration) is added and incubation continued for further 24 h. On day 3, the culture medium is discarded and attached cells fixed for 15 min at room temperature by addition of 100 μl fixation buffer (3.7% v:v formaldehyde in phosphate buffered saline/PBS). After discarding the fixation buffer and one wash with blocking solution (1% BSA, 0.3% Tween 20 in PBS), cells are permeabilized at room temperature by addition of 100 μl /well permeabilization buffer (30.8 mM NaCl, 0.54 mM Na2HPO4, 0.31 mM KH2PO4, 0.1% v:v Triton X-100) for 15 min at room temperature. After discarding the permeabilization buffer and washing twice with 100 μl/well blocking solution at room temperature, the 1st antibody (anti-K1-20 histone H3 antibody, Calbiochem No. 382158) in blocking solution (50 μl/well) is added. After incubation for 1 h at room temperature, the wells are washed twice at room temperature with 100 μl/well blocking solution before addition of the 2nd antibody (goat-anti-rabbit Alexa Fluor 488; MoBiTec No. A -11008) in blocking solution (50 μl well). After further incubation for 1 h at room temperature, wells are washed twice with 100 μl/well blocking solution at room temperature. Finally, 100 μl/well PBS are added and image analysis performed on the Cellomics “ArrayScan II” platform. For EC50 determination, the percentage of positive cells showing nuclear fluorescence is determined and EC50 calculation done from concentration-effect curves by means of non-linear regression. For calibration, a positive (reference HDAC inhibitors like SAHA or NVP LBH-589) and a negative control were included.

A549 NSCLC cells = assay: Cellular cytotoxicity assay (Alamar Blue), A549; type: cell-based; conditions: Homo sapiens, 72 h, upper end given as ≧100, read-out: IC50 (μM), cytotoxicity towards A549 NSCLC cells
Outline: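 Resazurin-to-resorufin fluorescence (ex 544, em 590 nm, after 4 h) gave viability as % of untreated cells following 72 h compound exposure at 37 °C. Compounds were added in semi-logarithmic dilutions 24 h post-seeding, quadruplicate wells; IC50 fitted by non-linear regression of concentration-effect curves.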

[2] = read-out: EC50, induction of histone H3 hyperacetylation
[3] = read-out: −lg EC50, induction of histone H3 hyperacetylation

| SMILES | EC50 [1, 2] | EC50 [1, 3] | IC50 (A549 NSCLC cells) |
| --- | --- | --- | --- |
| Nc1ccccc1NC(=O)c1nc2c(s1)CN(c1ccc([N+](=O)[O-])cn1)CC2 [Example 194, N-(2-aminophenyl)-5-(5-nitropyridin-2-yl)-4,5,6,7-tetrahydro[1,3]thiazolo[5,4-c]pyridine-2-carboxamide] | 0.15 to 15 µM | 0.251 to 15.8 µM | ≥ 0.2 µM |
| COc1ccc(NC(=NC#N)N2CCc3nc(C(=O)Nc4ccccc4N)sc3C2)cc1 [Example 117, N-(2-aminophenyl)-5-{(cyanoimino)[(4-methoxyphenyl)amino]methyl}-4,5,6,7-tetrahydro[1,3]thiazolo[5,4-c]pyridine-2-carboxamide] | 0.15 to 15 µM | 0.251 to 15.8 µM | ≥ 0.2 µM |
| CS(=O)(=O)N1CCc2nc(C(=O)Nc3ccccc3N)sc2C1 [Example 154, N-(2-aminophenyl)-5-(methylsulfonyl)-4,5,6,7-tetrahydro[1,3]thiazolo[5,4-c]pyridine-2-carboxamide] | 0.15 to 15 µM | 0.251 to 15.8 µM | ≥ 0.2 µM |
| Nc1ccccc1NC(=O)c1nc2c(s1)CN(C(=O)NCc1ccccc1)CC2 [Example 4, N^2-(2-aminophenyl)-N5-benzyl-6,7-dihydro[1,3]thiazolo[5,4-c]pyridine-2,5(4H)-dicarboxamide] | 0.15 to 15 µM | 0.251 to 15.8 µM | ≥ 0.2 µM |
| CN(C)c1cccc(NC(=O)N2CCc3nc(C(=O)Nc4ccccc4N)sc3C2)c1 [Example 18, N^2-(2-aminophenyl)-N^5-[3-(dimethylantino)phenyl]-6,7-dihydro[1,3]thiazolo[5,4-c]pyridine-2,5(4H)-dicarboxamide] | 0.15 to 15 µM | 0.251 to 15.8 µM | ≥ 0.2 µM |
| Nc1ccccc1NC(=O)c1nc2c(s1)CN(C(=O)Nc1cccnc1)CC2 [Example 39, N^2-(2-aminophenyl)-N^5-pyridin-3-yl-6,7-dihydro[1,3]thiazolo[5,4-c]pyridine-2,5(4H)-dicarboxamide] | 0.15 to 15 µM | 0.251 to 15.8 µM | ≥ 0.2 µM |
| Cc1ccc(S(=O)(=O)Nc2cnc(N3CCc4nc(C(=O)Nc5ccccc5N)sc4C3)nc2)cc1 [Example 196, N-(2-aminophenyl)-5-(5-{[(4-methylphenyl)sulfonyl]amino}pyrimidin-2-yl)-4,5,6,7-tetrahydro[1,3]thiazolo[5,4-c]pyridine-2-carboxamide] | 0.15 to 15 µM | 0.251 to 15.8 µM | ≥ 0.2 µM |
| N#CN=C(Nc1ccccc1)N1CCc2nc(C(=O)Nc3ccccc3N)sc2C1 [Example 116, N-(2-aminophenyl)-5-[anilino(cyanoimino)methyl]-4,5,6,7-tetrahydro[1,3]thiazolo[5,4-c]pyridine-2-carboxamide] | 0.15 to 15 µM | 0.251 to 15.8 µM | ≥ 0.2 µM |
| Nc1ccccc1NC(=O)c1nc2c(s1)CN(c1ncccn1)CC2 [Example 192, N-(2-aminophenyl)-5-pyrimidin-2-yl-4,5,6,7-tetrahydro[1,3]thiazolo[5,4-c]pyridine-2-carboxamide] | 0.15 to 15 µM | 0.251 to 15.8 µM | ≥ 0.2 µM |
| CN(C)c1ccc(NC(=O)N2CCc3nc(C(=O)Nc4ccccc4N)sc3C2)cn1 [Example 36, N^2-(2-aminophenyl)-N^5-[6-(dimethylamino)pyridin-3-yl]-6,7-dihydro[1,3]thiazolo[5,4-c]pyridine-2,5(4H)-dicarboxamide] | 0.15 to 15 µM | 0.251 to 15.8 µM | ≥ 0.2 µM |
| Cc1ccc(C(=O)N2CCc3nc(C(=O)Nc4ccccc4N)sc3C2)cn1 [Example 96, N-(2-aminophenyl)-5-[(6-methylpyridin-3-yl)carbonyl]-4,5,6,7-tetrahydro-[1,3]thiazolo[5,4-c]pyridine-2-carboxamide] | 0.15 to 15 µM | 0.251 to 15.8 µM | ≥ 0.2 µM |
| COCCNC(=O)N1CCc2nc(C(=O)Nc3ccccc3N)sc2C1 [Example 16, N^2-(2-aminophenyl)-N^5-(2-methoxyethyl)-6,7-dihydro[1,3]thiazolo[5,4-c]-pyridine-2,5(4H)-dicarboxamide] | 0.15 to 15 µM | 0.251 to 15.8 µM | ≥ 0.2 µM |

More lines, main results first:

| EC50 [1, 2] | EC50 [1, 3] | SMILES | IC50 (A549 NSCLC cells) |
| --- | --- | --- | --- |
| 0.15 to 15 µM | 0.251 to 15.8 µM | COc1ccc(OCC(=O)N2CCc3nc(C(=O)Nc4ccccc4N)sc3C2)cc1 [Example 174, N-(2-aminophenyl)-5-[(4-methoxyphenoxy)acetyl]-4,5,6,7-tetrahydro[1,3]-thiazolo[5,4-c]pyridine-2-carboxamide] | ≥ 0.2 µM |
| 0.15 to 15 µM | 0.251 to 15.8 µM | Nc1ccccc1NC(=O)c1nc2c(s1)CN(C(=O)Nc1ccncc1)CC2 [Example 15, N^2-(2-aminophenyl)-N^5-pyridin-4-yl-6,7-dihydro[1,3]thiazolo[5,4-c]pyridine-2,5(4H)-dicarboxamide] | ≥ 0.2 µM |
| 0.15 to 15 µM | 0.251 to 15.8 µM | Nc1ccccc1NC(=O)c1nc2c(s1)CN(C(=O)C=Cc1ccc3c(c1)OCO3)CC2 [Example 190, N-(2-aminophenyl)-5-[3-(1,3-benzodioxol-5-yl)prop-2-enoyl]-4,5,6,7-tetrahydro[1,3]thiazolo[5,4-c]pyridine-2-carboxamide] | ≥ 0.2 µM |
| 0.15 to 15 µM | 0.251 to 15.8 µM | Nc1ccccc1NC(=O)c1nc2c(s1)CN(C(=O)NCc1cccnc1)CC2 [Example 14, N^2-(2-aminophenyl)-N^5-(pyridin-3-ylmethyl)-6,7-dihydro[1,3]thiazolo[5,4-c]pyridine-2,5(4H)-dicarboxamide] | ≥ 0.2 µM |
| 0.15 to 15 µM | 0.251 to 15.8 µM | Nc1ccccc1NC(=O)c1nc2c(s1)CN(C(=O)C=Cc1ccc(O)c(O)c1)CC2 [Example 191, N-(2-aminophenyl)-5-[3-(3,4-dihydroxyphenyl)prop-2-enoyl]-4,5,6,7-tetrahydro[1,3]thiazolo[5,4-c]pyridine-2-carboxamide] | ≥ 0.2 µM |
| 0.15 to 15 µM | 0.251 to 15.8 µM | Cc1ccc(OCC(=O)N2CCc3nc(C(=O)Nc4ccccc4N)sc3C2)cc1 [Example 173, N-(2-aminophenyl)-5-[(4-methylphenoxy)acetyl]-4,5,6,7-tetrahydro[1,3]thiazolo[5,4-c]pyridine-2-carboxamide] | ≥ 0.2 µM |
| 0.15 to 15 µM | 0.251 to 15.8 µM | COc1ccc(OC(=O)N2CCc3nc(C(=O)Nc4ccccc4N)sc3C2)cc1OC [Example 186, 3,4-dimethoxyphenyl 2-[(2-aminophenyl)carbamoyl]-6,7-dihydro[1,3]thiazolo[5,4-c]pyridine-5(4H)-carboxylate] | ≥ 0.2 µM |
| 0.15 to 15 µM | 0.251 to 15.8 µM | Cc1ccc(NC(=O)N2CCc3nc(C(=O)Nc4ccccc4N)sc3C2)cc1 [Example 13, N^2-(2-aminophenyl)-N^5-(4-methylphenyl)-6,7-dihydro[1,3]thiazolo[5,4-c]-pyridine-2,5(4H)-dicarboxamide] | ≥ 0.2 µM |
| 0.15 to 15 µM | 0.251 to 15.8 µM | COc1ccc(OC(=O)N2CCc3nc(C(=O)Nc4ccccc4N)sc3C2)cc1 [Example 183, 4-methoxyphenyl 2-[(2-aminophenyl)carbamoyl]-6,7-dihydro[1,3]thiazolo[5,4-c]pyridine-5(4H)-carboxylate] | ≥ 0.2 µM |
| 0.15 to 15 µM | 0.251 to 15.8 µM | N#CN=C(NCc1ccccc1)N1CCc2nc(C(=O)Nc3ccccc3N)sc2C1 [Example 122, N-(2-aminophenyl)-5-[(benzylamino)(cyanoimino)methyl]-4,5,6,7-tetrahydro[1,3]thiazolo[5,4-c]pyridine-2-carboxamide] | ≥ 0.2 µM |
| 0.15 to 15 µM | 0.251 to 15.8 µM | CN1CCN(c2ccc(NC(=O)N3CCc4nc(C(=O)Nc5ccccc5N)sc4C3)cn2)CC1 [Example 37, N^2-(2-aminophenyl)-N^5-[6-(4-methylpiperazin-1-yl)pyridin-3-yl]-6,7-dihydro[1,3]thiazolo[5,4-c]pyridine-2,5(4H)-dicarboxamide] | ≥ 0.2 µM |
| 0.15 to 15 µM | 0.251 to 15.8 µM | Nc1ccccc1NC(=O)c1nc2c(s1)CN(S(=O)(=O)c1ccc(-c3ccccc3)cc1)CC2 [Example 152, N-(2-aminophenyl)-5-(biphenyl-4-ylsulfonyl)-4,5,6,7-tetrahydro[1,3]thiazolo[5,4-c]pyridine-2-carboxamide] | ≥ 0.2 µM |
